Experimental data taken from ChEMBL document CHEMBL4346757, “Synthesis and biological evaluation of 7-methoxy-1-(3,4,5-trimethoxyphenyl)-4,5-dihydro-2H-benzo[e]indazoles as new colchicine site inhibitors” (Bioorg Med Chem Lett, 2019).

Assays:
OVCAR-4 [1] = experiment: Growth inhibition of human OVCAR4 cells assessed as cell growth at 100 uM after 48 hrs by SRB assay relative to control; assay type: functional; details: OVCAR-4, 48 h, read-out: Activity
MCF7 [2] = experiment: Growth inhibition of human MCF7 cells assessed as cell growth at 10 uM after 48 hrs by SRB assay relative to control; assay type: functional; details: MCF7, 48 h, read-out: Activity
UO-31 = experiment: Growth inhibition of human UO31 cells assessed as cell growth at 10 uM after 48 hrs by SRB assay relative to control; assay type: functional; details: UO-31, 48 h, read-out: Activity
ACHN = experiment: Growth inhibition of human ACHN cells assessed as cell growth at 1 uM after 48 hrs by SRB assay relative to control; assay type: functional; details: read-out: Activity
MCF7 [3] = experiment: Growth inhibition of human MCF7 cells assessed as cell growth at 1 uM after 48 hrs by SRB assay relative to control; assay type: functional; details: MCF7, 48 h, read-out: Activity
SF-268 = experiment: Growth inhibition of human SF268 cells assessed as cell growth at 100 uM after 48 hrs by SRB assay relative to control; assay type: functional; details: SF-268, 48 h, read-out: Activity
OVCAR-5 = experiment: Growth inhibition of human OVCAR5 cells assessed as cell growth at 0.1 uM after 48 hrs by SRB assay relative to control; assay type: functional; details: OVCAR-5, 48 h, read-out: Activity
IGROV-1 = experiment: Growth inhibition of human IGROV1 cells assessed as cell growth at 1 uM after 48 hrs by SRB assay relative to control; assay type: functional; details: IGROV-1, 48 h, read-out: Activity
MDA-MB-231 [4] = experiment: Growth inhibition of human MDA-MB-231/ATCC cells assessed as cell growth at 1 uM after 48 hrs by SRB assay relative to control; assay type: functional; details: MDA-MB-231, 48 h, read-out: Activity
M14 = experiment: Growth inhibition of human M14 cells assessed as cell growth at 1 uM after 48 hrs by SRB assay relative to control; assay type: functional; details: M14, 48 h, read-out: Activity
NCI/ADR-RES = experiment: Growth inhibition of human NCI-ADR-RES cells assessed as cell growth at 1 uM after 48 hrs by SRB assay relative to control; assay type: functional; details: read-out: Activity
RXF 393 [5] = experiment: Growth inhibition of human RXF393 cells assessed as cell growth at 1 uM after 48 hrs by SRB assay relative to control; assay type: functional; details: RXF 393, 48 h, read-out: Activity
HT-29 = experiment: Growth inhibition of human HT-29 cells assessed as cell growth at 0.1 uM after 48 hrs by SRB assay relative to control; assay type: functional; details: HT-29, 48 h, read-out: Activity
HOP-62 = experiment: Growth inhibition of human HOP62 cells assessed as cell growth at 100 uM after 48 hrs by SRB assay relative to control; assay type: functional; details: HOP-62, 48 h, read-out: Activity
RXF 393 [6] = experiment: Growth inhibition of human RXF393 cells assessed as cell growth at 10 uM after 48 hrs by SRB assay relative to control; assay type: functional; details: RXF 393, 48 h, read-out: Activity
UACC-62 = experiment: Growth inhibition of human UACC62 cells assessed as cell growth at 1 uM after 48 hrs by SRB assay relative to control; assay type: functional; details: UACC-62, 48 h, read-out: Activity
K562 = experiment: Growth inhibition of human K562 cells assessed as cell growth at 1 uM after 48 hrs by SRB assay relative to control; assay type: functional; details: K562, 48 h, read-out: Activity
OVCAR-4 [7] = experiment: Growth inhibition of human OVCAR4 cells assessed as cell growth at 10 uM after 48 hrs by SRB assay relative to control; assay type: functional; details: OVCAR-4, 48 h, read-out: Activity
SK-OV-3 = experiment: Growth inhibition of human SKOV3 cells assessed as cell growth at 100 uM after 48 hrs by SRB assay relative to control; assay type: functional; details: SK-OV-3, 48 h, read-out: Activity
COLO 205 [8] = experiment: Growth inhibition of human COLO205 cells assessed as cell growth at 1 uM after 48 hrs by SRB assay relative to control; assay type: functional; details: COLO 205, 48 h, read-out: Activity
RXF 393 [9] = experiment: Growth inhibition of human RXF393 cells assessed as cell growth at 0.1 uM after 48 hrs by SRB assay relative to control; assay type: functional; details: RXF 393, 48 h, read-out: Activity
SF-295 = experiment: Growth inhibition of human SF295 cells assessed as cell growth at 100 uM after 48 hrs by SRB assay relative to control; assay type: functional; details: SF-295, 48 h, read-out: Activity
SNB-19 = experiment: Growth inhibition of human SNB19 cells assessed as cell growth at 100 uM after 48 hrs by SRB assay relative to control; assay type: functional; details: SNB-19, 48 h, read-out: Activity
SK-MEL-5 = experiment: Growth inhibition of human SK-MEL-5 cells assessed as cell growth at 0.1 uM after 48 hrs by SRB assay relative to control; assay type: functional; details: SK-MEL-5, 48 h, read-out: Activity
SR = experiment: Growth inhibition of human SR cells assessed as cell growth at 100 uM after 48 hrs by SRB assay relative to control; assay type: functional; details: read-out: Activity
A549 = experiment: Growth inhibition of human A549/ATCC cells assessed as cell growth at 0.1 uM after 48 hrs by SRB assay relative to control; assay type: functional; details: A549, 48 h, read-out: Activity
T47D = experiment: Growth inhibition of human T47D cells assessed as cell growth at 0.01 uM after 48 hrs by SRB assay relative to control; assay type: functional; details: read-out: Activity
COLO 205 [10] = experiment: Cytotoxicity against human COLO205 cells assessed as growth inhibition after 48 hrs by SRB assay; assay type: functional; details: COLO 205, 48 h
OVCAR-4 [11] = experiment: Growth inhibition of human OVCAR4 cells assessed as cell growth at 0.1 uM after 48 hrs by SRB assay relative to control; assay type: functional; details: OVCAR-4, 48 h, read-out: Activity
HCT-116 = experiment: Antiproliferative activity against human HCT116 cells assessed as reduction in cell viability by MTT assay; assay type: functional, cell-based
CAKI-1 = experiment: Growth inhibition of human Caki1 cells assessed as cell growth at 100 uM after 48 hrs by SRB assay relative to control; assay type: functional; details: CAKI-1, 48 h, read-out: Activity
COLO 205 [12] = experiment: Growth inhibition of human COLO205 cells assessed as cell growth at 10 uM after 48 hrs by SRB assay relative to control; assay type: functional; details: COLO 205, 48 h, read-out: Activity
MDA-MB-231 [13] = experiment: Growth inhibition of human MDA-MB-231/ATCC cells assessed as cell growth at 0.1 uM after 48 hrs by SRB assay relative to control; assay type: functional; details: MDA-MB-231, 48 h, read-out: Activity
UACC-257 = experiment: Cytotoxicity against human UACC257 cells assessed as growth inhibition after 48 hrs by SRB assay; assay type: functional; details: UACC-257, 48 h
Hs-578T = experiment: Growth inhibition of human Hs 578T cells assessed as cell growth at 0.01 uM after 48 hrs by SRB assay relative to control; assay type: functional; details: read-out: Activity
[14] = read-out: LC50 (the source's name)
[15] = read-out: pLC50 (the source's name) (converted)

COc1ccc2c(c1)CCc1n[nH]c(-c3cc(OC)c(OC)c(OC)c3)c1-2
growth at 100 µM (OVCAR-4 [1]): -12%
growth at 10 µM (MCF7 [2]): 5%
growth at 10 µM (UO-31): 13%
growth at 1 µM (ACHN): 25%
growth at 1 µM (MCF7 [3]): 12%
growth at 100 µM (SF-268): -25%
growth at 0.1 µM (OVCAR-5): 54%
growth at 1 µM (IGROV-1): 26%
growth at 1 µM (MDA-MB-231 [4]): 29%
growth at 1 µM (M14): 4%
growth at 1 µM (NCI/ADR-RES): -9%
growth at 1 µM (RXF 393 [5]): 6%
growth at 0.1 µM (HT-29): 2%
growth at 100 µM (HOP-62): -76%
growth at 10 µM (RXF 393 [6]): -6%
growth at 1 µM (UACC-62): 36%
growth at 1 µM (K562): 18%
growth at 10 µM (OVCAR-4 [7]): 35%
growth at 100 µM (SK-OV-3): -50%
growth at 1 µM (COLO 205 [8]): -56%
growth at 0.1 µM (RXF 393 [9]): -2%
growth at 100 µM (SF-295): -61%
growth at 100 µM (SNB-19): -12%
growth at 0.1 µM (SK-MEL-5): -26%
growth at 100 µM (SR): -15%
growth at 0.1 µM (A549): 11%
growth at 0.01 µM (T47D): 59%
GI50 (COLO 205 [10]; read-out: GI50): < 0.01 µM
CC50 (COLO 205 [10]; [14]): 0.249 µM
TGI (COLO 205 [10]; read-out: TGI): < 0.01 µM
GI50 (COLO 205 [10]; read-out: pGI50 (converted)): < 0.01 µM
CC50 (COLO 205 [10]; [15]): 0.251 µM
TGI (COLO 205 [10]; read-out: pTGI): < 0.01 µM
growth at 0.1 µM (OVCAR-4 [11]): 44%
IC50 (HCT-116): 0.001 µM
growth at 100 µM (CAKI-1): -20%
growth at 10 µM (COLO 205 [12]): -61%
growth at 0.1 µM (MDA-MB-231 [13]): 29%
CC50 (UACC-257; [14]): > 100 µM
TGI (UACC-257; read-out: TGI): 34.2 µM
CC50 (UACC-257; [15]): > 100 µM
TGI (UACC-257; read-out: pTGI (converted)): 33.9 µM
growth at 0.01 µM (Hs-578T): 14%
